Results as given in patent US20170095524A1, “METHODS FOR MODULATING CANCER CELLS AND STEM CELLS” (The Scripps Research Institute, priority 2014, published 2017).

Legend:
LIN28 = assay: Western blot of LIN28 levels in P19 cells treated with IGF1R and calpain inhibitors; assay type: cell-based; conditions: acute treatment (~12 hrs)
Source text: FIGS. 4A-4B show regulation of LIN28 levels by RBM3, IGF1R, and calpain. (A) Western blot showing the effect of RBM3 knock-down (siRNA) on LIN28 levels in P19 cells treated at the neurosphere stage with (or without) retinoic acid (RA) to induce neural differentiation. RBM3 knock-down increases LIN28 and blocks the ability of RA to decrease LIN28. (B) Western blots showing reduction of LIN28 in P19 cells following acute treatment (˜12 hrs) with inhibitors of IGF1R and calpain (each of which increases the expression of the dephosphorylated form of RBM3). […] HDAC is a loading control.
FIGS. 7A-7D show results from additional studies of reducing LIN28 levels via synergistic dual inhibitor strategies. (A & B) Graphs of changes in RBM3 and LIN28 expression in P19 cells treated with the IGF1R inhibitor PPP (10 nM), the calpain inhibitor calpeptin (Cpep, 50 μM), and a combination of PPP plus Cpep (A: n=10-14; B: n=20-24). (C) (top panels) Example of Westerns of LIN28 in P19 cells exposed to PPP, Cpep, and PPP+Cpep; (bottom panels) Example of Westerns of LIN28 and RBM3 in samples from P19 cells treated in triplicate with control and Cpep+PPP conditions. (D) Fold change in let-7 family miRNAs and miR-21 in P19 cells treated with PPP+Cpep as measured by qRT-PCR (n=4). All treatments were for 36 hours. […]

RBM3 = assay: 2D Western blot of RBM3 phosphorylation forms in P19 cells after calpain inhibition; assay type: cell-based
Source text: (Top) 2D Western blot of RBM3 in vehicle-treated (DMSO) P19 cells. Red arrows point to exogenously expressed mutant of RBM3 (A4F) with 4 C-term Y to F mutations, and to two phosphorylated endogenous isoforms of RBM3 that differ by a single arginine (Arg). […] A basic spot not present in the control condition appears that corresponds to the pI of dephosphorylated Arg+RBM3, the form of RBM3 that preferentially associates with pre-miRNAs. We further observed that calpain inhibition rescues expression of dephosphorylated RBM3 in pluripotent cells. Calpains are Ca^++-activated cysteine proteases that regulate diverse cellular processes. Calpain's role in pluripotent and cancerous cells prompted us to test whether it regulates the expression of the dephosphorylated form of RBM3 in pluripotent cells (and accounts for the difficulty in expressing non-phosphorylatable mutants in these cells).

| SMILES | LIN28 levels (Western blot) (LIN28; Cpep 50 μM) | RBM3 pI distribution (2D Western); basic spot corresponding to dephosphorylated Arg+RBM3 appears (RBM3; P19 cells incubated with calpain inhibitor vs DMSO vehicle) | levels of a non-phosphorylatable mutant of RBM3 (RBM3; pluripotent P19 cells) | levels of the endogenous dephosphorylated form of RBM3 that binds pre-miRNAs (dephos Arg+) (RBM3; pluripotent P19 cells) | LIN28 levels (Western blot) (LIN28; PPP 10 nM) |
| --- | --- | --- | --- | --- | --- |
| CCCC[C@@H](C=O)NC(=O)[C@H](CC(C)C)NC(=O)OCc1ccccc1 [calpeptin] | reduces LIN28 levels | shift in RBM3 pI distribution | increased | increased | – |
| COc1cc([C@@H]2c3cc4c(cc3[C@H](O)[C@H]3COC(=O)[C@@H]23)OCO4)cc(OC)c1OC [picropodophyllin] | – | – | – | – | reduces LIN28 levels |
